In publication PMC10144242, “Design, Synthesis, In Vitro, and In Silico Insights of 5-(Substituted benzylidene)-2-phenylthiazol-4(5H)-one Derivatives: A Novel Class of Anti-Melanogenic Compounds” (Molecules, 2023):

System: B16F10 cells
Assay: Cell viability / cytotoxicity, EZ-Cytox assay
Type: cell-based, murine
Conditions: concentrations ≤ 20 µM, 48 and 72 h
Experimental: Before investigating their inhibitory effects on B16F10 cells, the viability of (Z)-BPT derivatives 1–3 was examined in B16F10 cells.
To determine the cell viability, six different concentrations (0, 1, 2, 5, 10, and 20 µM) of (Z)-BPT derivatives 1–3 were used, and the results were examined at two time points (48 and 72 h). […] Based on the cell viability results, the concentrations for cell-based assays related to the melanin production level and cellular tyrosinase activity were determined.
Cytotoxicity studies of (Z)-BPT derivatives 1–3 were performed on B16F10 melanoma cells using the previously established EZ-Cytox (EZ-3000, DoGenBio, Seoul, Republic of Korea) test, and cytotoxicity studies of (Z)-BPT derivatives 1–3 were conducted on B16F10 melanoma cells. Briefly, B16F10 cells were seeded in a 96-well plate at a density of 1 × 10^4 cells/well and cultivated at 37 °C for 24 h in a humid environment with 5% CO2. […] The cells were then incubated at 37 °C for 2 h after 10 µL of the EZ-Cytox solution had been added to each well. To determine the cell viability, the absorbance of each well was measured at 450 nm using a microplate reader (VersaMax^TM, Molecular Devices, Sunnyvale, CA, USA). Each assay was performed in triplicates.
Figure 6 Effects of (Z)-BPT derivatives 1–3 on cell viability in B16F10 cells. Cytotoxic effects were measured using an EZ-Cytox assay at six different concentrations (0, 1, 2, 5, 10, and 20 µM) of 1–3. (A) Derivative 1; (B) Derivative 2; (C) Derivative 3. *** p < 0.001 for non-treated cells vs. cells treated with 3.

SMILES	cytotoxicity
O=C1N=C(c2ccccc2)S/C1=C\c1ccc(O)cc1 [Compound 1, (Z)-5-(4-Hydroxybenzylidene)-2-phenylthiazol-4(5H)-one]	did not show any perceptible cytotoxicity
O=C1N=C(c2ccccc2)S/C1=C\c1ccc(O)cc1O [Compound 2, (Z)-5-(2,4-Dihydroxybenzylidene)-2-phenylthiazol-4(5H)-one]	did not show any perceptible cytotoxicity
